The record followed here is US10000739B2, “Method and culture medium for improving pluripotent stem cell differentiation inducing efficiency” (NATIONAL UNIVERSITY CORPORATION KUMAMOTO UNIVERSITY, priority 2010, dated 2018).

The subject of the assay is human iPS cells. As to the method: For investigating an influence of a proline-added differentiation culture medium on differentiation into hepatocytes, differentiation of human iPS cells into liver precursor cells was induced using a liver differentiation culture medium containing proline added at a concentration of 1 mM.
On a gelatin-coated 96-well plate, mmcM15 cells were seeded as supporting cells. Human iPS cells were treated with Y27632 (10 μM) from 24 hours before seeding, and peeled using 0.25% trypsin. The peeled human iPS cells were seeded on mmcM15 cells at a cell concentration of 1×10^4 cells/well. The seeded human iPS cells were cultured for 24 hours under 37° C. and 5% CO2 in ES culture medium containing Y27632 and bFGF added. After 24 hours, the culture medium was changed to an endoderm differentiation culture medium (Day 0).
In the same manner as in Example 3, the endoderm differentiation culture medium was changed every other day and human iPS cells were cultured under 37° C. and 5% CO2, from the day of initiation of culturing (Day 0) to Day 8.
On Day 10, the culture medium was changed to a liver differentiation culture medium (2000KSR-DMEM culture medium, control culture medium) or Pro-containing 2000KSR-DMEM culture medium obtained by further adding 1 mM proline to a control culture medium, and human iPS cells were cultured until Day 19 under 37° C. and 5% CO2. During Day 10 to Day 19, the culture medium was changed every other day. On Day 19, human iPS cells were subjected to immunofluorescent staining with an anti-Oct3/4 antibody and an anti-AFP antibody.

Setting [1] is: Day 19, methionine deprivation Day 8 to Day 10 and/or 1 mM proline Day 10 to Day 19, vs control group.

The structures appear in SMILES notation.

For the compound `O=C(O)[C@@H]1CCCN1` [proline], under setting [1], the AFP positive cells entry is listed as “larger” and the Oct3/4 positive cells result is “decreased”. Moreover, the “AFP and Oct3/4 positive cells” value (proline 10 mM) is on record as “the same result as in the case of 1 mM addition”.
